Laboratory results taken from patent US20250262336A1, “[177LU] LUTETIUM-PSMA I&T COMPOSITION AND DOSIMETRY, KIT, METHOD OF MAKING, AND METHOD OF USING THEREOF” (Curium US LLC, priority 2023, published 2025).

Tests used:
[1] = Cycle 3 plasma PK modelling; type: in vivo, human; conditions: n = 15
Procedure: Whole blood samples were collected as detailed in the protocol Schedule of Events i.e. pre-injection, and then at 1 h, 4 h, 24 h, 48 h, and 168 h post-injection. The samples were first centrifuged to separate plasma, and the radioactivity in the plasma was then measured using a gamma counter. Plasma concentrations were subsequently fitted with a bi-exponential function to derive outcome parameters such as the half-life and clearance rate of the radiopharmaceutical in the plasma.
(§1) Blood samples were obtained for 15 out of 16 patients at cycle 3. Patients 12-004 had blood taken only at the 24 h timepoint and, therefore, was not included in the plasma PK analysis. Consistent with Cycle 1, the time-course of plasma concentrations was similar among the patients. The ranges of PK parameters obtained at cycle 3 were similar to those from Cycle 1 data (Tables 9A and 9B).
as §1, with “(Table 29). See Table 29) Cycle 3 PK plasma modeling results (n15)” for “(Tables 9A and 9B).”

[2] = Cycle 3 biodistribution and dosimetry (SPECT/CT, single or multiple time points); type: in vivo, human
Procedure: (§2) To evaluate potential changes in the tracer's kinetics and uptake after multiple treatment cycles, 16 of the 27 patients included in the dosimetry sub study, were imaged at both cycle 1 and cycle 3. Among these, at cycle 3, three patients were imaged at all 4 timepoints and the other 13 were imaged at one or two timepoints only (24 h, 48 h or both 24 h and 48 h) (Table 2). For these 13 patients, the TACs obtained at cycle 1 were used for each source organ and scaled to the normalized activity value(s) measured at Cycle 3. For patients imaged at two timepoints, the TACs were preferably scaled using the average scaling factor between the two timepoints.
(§3) A subgroup of 16 out of the 27 patients underwent and additional dosimetry assessment at Cycle 3. Among these, three patients had dosimetry performed based on images taken at 4 timepoints, while the remaining patients had dosimetry performed at 1 or 2 imaging timepoints only.
as §2, with “7 in Appendix 1).” for “2).”
as §3, with “only, as described in Section 4.4.1.” for “only.”

[3] = Lacrimal Glands (OLINDA sphere model), N = 16

AUC Total, Mean [1]: 25.58 fIA/L × min | AUC Total, max [1]: 39.62 fIA/L × min | AUC Total, median [1]: 24.55 fIA/L × min | AUC Total, min [1]: 13.86 fIA/L × min | Peak Concentration Value, Mean [1]: 0.05 fIA/L | Peak Concentration Value, max [1]: 0.07 fIA/L | Peak Concentration Value, median [1]: 0.04 fIA/L | Peak Concentration Value, min [1]: 0.03 fIA/L | Time of Peak Concentration [1]: 55.00 min | Time of Peak Concentration, Mean [1]: 60.67 min | Time of Peak Concentration, max [1]: 68.00 min | Time of Peak Concentration, median [1]: 60.00 min | Vc, Mean [1]: 16.40 L | Vc, max [1]: 24.53 L | Vc, median [1]: 16.42 L | Vc, min [1]: 10.66 L | Absorbed Dose in Cycle 3, Mean ([2]; Adrenals, N = 16): 0.02 Gy/GBq | Absorbed Dose in Cycle 3, max ([2]; Adrenals, N = 16): 0.03 Gy/GBq | Absorbed Dose in Cycle 3, min ([2]; Adrenals, N = 16): 0.01 Gy/GBq | Absorbed Dose in Cycle 3, Mean ([2]; Brain, N = 16): 0.01 Gy/GBq | Absorbed Dose in Cycle 3, max ([2]; Brain, N = 16): 0.02 Gy/GBq | Absorbed Dose in Cycle 3, min ([2]; Brain, N = 16): 0.00 Gy/GBq | Absorbed Dose in Cycle 3, Mean ([2]; Esophagus, N = 16): 0.01 Gy/GBq | Absorbed Dose in Cycle 3, max ([2]; Esophagus, N = 16): 0.02 Gy/GBq | Absorbed Dose in Cycle 3, min ([2]; Esophagus, N = 16): 0.00 Gy/GBq | Absorbed Dose in Cycle 3, Mean ([2]; Eyes, N = 16): 0.01 Gy/GBq | Absorbed Dose in Cycle 3, max ([2]; Eyes, N = 16): 0.02 Gy/GBq | Absorbed Dose in Cycle 3, min ([2]; Eyes, N = 16): 0.00 Gy/GBq | Absorbed Dose in Cycle 3, Mean ([2]; Gallbladder wall, N = 16): 0.01 Gy/GBq | Absorbed Dose in Cycle 3, max ([2]; Gallbladder wall, N = 16): 0.02 Gy/GBq | Absorbed Dose in Cycle 3, min ([2]; Gallbladder wall, N = 16): 0.00 Gy/GBq | Absorbed Dose in Cycle 3, Mean ([2]; Heart wall, N = 16): 0.01 Gy/GBq | Absorbed Dose in Cycle 3, max ([2]; Heart wall, N = 16): 0.02 Gy/GBq | Absorbed Dose in Cycle 3, min ([2]; Heart wall, N = 16): 0.00 Gy/GBq | Absorbed Dose in Cycle 3, Mean ([2]; Kidneys, N = 16): 0.49 Gy/GBq | Absorbed Dose in Cycle 3, max ([2]; Kidneys, N = 16): 0.85 Gy/GBq | Absorbed Dose in Cycle 3, min ([2]; Kidneys, N = 16): 0.19 Gy/GBq | Absorbed Dose in Cycle 3, Mean [2, 3]: 0.29 Gy/GBq | Absorbed Dose in Cycle 3, max [2, 3]: 0.73 Gy/GBq | Absorbed Dose in Cycle 3, min [2, 3]: 0.10 Gy/GBq | Absorbed Dose in Cycle 3, Mean ([2]; Left colon, N = 16): 0.41 Gy/GBq | Absorbed Dose in Cycle 3, max ([2]; Left colon, N = 16): 0.94 Gy/GBq | Absorbed Dose in Cycle 3, min ([2]; Left colon, N = 16): 0.07 Gy/GBq | Absorbed Dose in Cycle 3, Mean ([2]; Liver, N = 16): 0.06 Gy/GBq | Absorbed Dose in Cycle 3, max ([2]; Liver, N = 16): 0.15 Gy/GBq | Absorbed Dose in Cycle 3, min ([2]; Liver, N = 16): 0.00 Gy/GBq | Absorbed Dose in Cycle 3, Mean ([2]; Lungs, N = 16): 0.01 Gy/GBq | Absorbed Dose in Cycle 3, max ([2]; Lungs, N = 16): 0.02 Gy/GBq | Absorbed Dose in Cycle 3, min ([2]; Lungs, N = 16): 0.00 Gy/GBq | Absorbed Dose in Cycle 3, Mean ([2]; Osteogenic cells, N = 16): 0.02 Gy/GBq | Absorbed Dose in Cycle 3, max ([2]; Osteogenic cells, N = 16): 0.09 Gy/GBq | Absorbed Dose in Cycle 3, min ([2]; Osteogenic cells, N = 16): 0.00 Gy/GBq | Absorbed Dose in Cycle 3, Mean ([2]; Pancreas, N = 16): 0.01 Gy/GBq | Absorbed Dose in Cycle 3, max ([2]; Pancreas, N = 16): 0.02 Gy/GBq | Absorbed Dose in Cycle 3, min ([2]; Pancreas, N = 16): 0.00 Gy/GBq | Absorbed Dose in Cycle 3, Mean ([2]; Prostate, N = 16): 0.01 Gy/GBq | Absorbed Dose in Cycle 3, max ([2]; Prostate, N = 16): 0.02 Gy/GBq | Absorbed Dose in Cycle 3, min ([2]; Prostate, N = 16): 0.01 Gy/GBq | Absorbed Dose in Cycle 3, Mean ([2]; Rectum, N = 16): 0.39 Gy/GBq | Absorbed Dose in Cycle 3, max ([2]; Rectum, N = 16): 0.90 Gy/GBq | Absorbed Dose in Cycle 3, min ([2]; Rectum, N = 16): 0.06 Gy/GBq | Absorbed Dose in Cycle 3, Mean ([2]; Red Marrow, N = 16): 0.03 Gy/GBq | Absorbed Dose in Cycle 3, max ([2]; Red Marrow, N = 16): 0.17 Gy/GBq | Absorbed Dose in Cycle 3, min ([2]; Red Marrow, N = 16): 0.00 Gy/GBq | Absorbed Dose in Cycle 3, Mean ([2]; Right Colon, N = 16): 0.22 Gy/GBq | Absorbed Dose in Cycle 3, max ([2]; Right Colon, N = 16): 0.51 Gy/GBq | Absorbed Dose in Cycle 3, min ([2]; Right Colon, N = 16): 0.04 Gy/GBq | Absorbed Dose in Cycle 3, Mean ([2]; Salivary Glands, N = 16): 0.20 Gy/GBq | Absorbed Dose in Cycle 3, max ([2]; Salivary Glands, N = 16): 0.69 Gy/GBq | Absorbed Dose in Cycle 3, min ([2]; Salivary Glands, N = 16): 0.04 Gy/GBq | Absorbed Dose in Cycle 3, Mean ([2]; Small intestine, N = 16): 0.04 Gy/GBq | Absorbed Dose in Cycle 3, max ([2]; Small intestine, N = 16): 0.10 Gy/GBq | Absorbed Dose in Cycle 3, min ([2]; Small intestine, N = 16): 0.01 Gy/GBq | Absorbed Dose in Cycle 3, Mean ([2]; Spleen, N = 16): 0.03 Gy/GBq | Absorbed Dose in Cycle 3, max ([2]; Spleen, N = 16): 0.12 Gy/GBq | Absorbed Dose in Cycle 3, min ([2]; Spleen, N = 16): 0.01 Gy/GBq | Absorbed Dose in Cycle 3, Mean ([2]; Stomach Wall, N = 16): 0.01 Gy/GBq | Absorbed Dose in Cycle 3, max ([2]; Stomach Wall, N = 16): 0.02 Gy/GBq | Absorbed Dose in Cycle 3, min ([2]; Stomach Wall, N = 16): 0.00 Gy/GBq | Absorbed Dose in Cycle 3, Mean ([2]; Testes, N = 16): 0.01 Gy/GBq | Absorbed Dose in Cycle 3, max ([2]; Testes, N = 16): 0.02 Gy/GBq | Absorbed Dose in Cycle 3, min ([2]; Testes, N = 16): 0.00 Gy/GBq | Absorbed Dose in Cycle 3, Mean ([2]; Thymus, N = 16): 0.01 Gy/GBq | Absorbed Dose in Cycle 3, max ([2]; Thymus, N = 16): 0.02 Gy/GBq | Absorbed Dose in Cycle 3, min ([2]; Thymus, N = 16): 0.00 Gy/GBq | Absorbed Dose in Cycle 3, Mean ([2]; Thyroid, N = 16): 0.01 Gy/GBq | Absorbed Dose in Cycle 3, max ([2]; Thyroid, N = 16): 0.02 Gy/GBq | Absorbed Dose in Cycle 3, min ([2]; Thyroid, N = 16): 0.00 Gy/GBq | Absorbed Dose in Cycle 3, Mean ([2]; Total Body, N = 16): 0.02 Gy/GBq | Absorbed Dose in Cycle 3, max ([2]; Total Body, N = 16): 0.03 Gy/GBq | Absorbed Dose in Cycle 3, min ([2]; Total Body, N = 16): 0.01 Gy/GBq | Absorbed Dose in Cycle 3, Mean ([2]; Urinary Bladder wall, N = 16): 0.45 Gy/GBq | Absorbed Dose in Cycle 3, max ([2]; Urinary Bladder wall, N = 16): 0.70 Gy/GBq | Absorbed Dose in Cycle 3, min ([2]; Urinary Bladder wall, N = 16): 0.36 Gy/GBq | organ absorbed radiation dose, kidneys ([2]; cycle 3, 16 patients imaged at cycle 1 and 3): 0.49±0.19 Gy/GBq
Compound: O=C(O)CC[C@H](NC(=O)N[C@@H](CCCCNC(=O)CCCCCCC(=O)NCCCC[C@@H](NC(=O)[C@@H](Cc1ccccc1)NC(=O)[C@@H](Cc1ccc(O)c(I)c1)NC(=O)CC[C@H](C(=O)O)N1CCN(CC(=O)O)CCN(CC(=O)O)CCN(CC(=O)O)CC1)C(=O)O)C(=O)O)C(=O)O [^177Lu-PSMA-I&T, (3S,7 S,26R,29R,32R,37R)-29-benzyl-32-(4-hydroxy-3-iodobenzyl)-5,13,20,28,31,34-hexaoxo-37-(4,7,10-tris(carboxymethyl)-1,4,7,10-tetraazacyclododecan-1-yl)-4,6,12,21,27,30,33-heptaazaheptatriacontane-1,3,7,26,37-pentacarboxylic acid; lutetium-177 (III), metal not drawn]
Absorbed Dose in Cycle 3, Mean ([2]; in vivo): 0.29 Gy/GBq | Absorbed Dose in Cycle 3, max ([2]; in vivo): 0.73 Gy/GBq | Absorbed Dose in Cycle 3, min ([2]; in vivo): 0.10 Gy/GBq
